{
  "source": "paper PMC11620506",
  "about": "“Inhibition of endocytic uptake of severe acute respiratory syndrome coronavirus 2 and endo-lysosomal acidification by diphenoxylate” (Antimicrobial Agents and Chemotherapy, 2024)",
  "key": {"[1]": {"system": "SARS-CoV-2 Alpha, GR(B.1.1.7), hCoV-19/Korea/KDCA51463/2021", "settings": "Vero cells"}, "[2]": {"system": "SARS-CoV-2 Beta, GH(B.1.351), hCoV-19/Korea/KDCA55905/2021", "settings": "Vero cells"}, "[3]": {"system": "SARS-CoV-2 Gamma, GR(P.1), hCoV-19/Korea/KDCA95637/2021", "settings": "for SI, ratio of CC50 to EC50: Gamma, Vero cells"}, "[4]": {"system": "SARS-CoV-2 Delta, G(B.1.617.2), hCoV-19/Korea/KDCA119861/2021", "settings": "Vero cells"}, "[5]": {"system": "SARS-CoV-2 Omicron, GRA(B.1.1.529), hCoV-19/Korea/KDCA447321/2021", "settings": "Vero cells"}, "[6]": {"system": "SARS-CoV-2 Alpha, GR(B.1.1.7), hCoV-19/Korea/KDCA51463/2021", "assay": "microbe, parasite or virus in culture", "settings": "Severe acute respiratory syndrome coronavirus 2, Vero"}, "[7]": {"system": "SARS-CoV-2 Beta, GH(B.1.351), hCoV-19/Korea/KDCA55905/2021", "assay": "microbe, parasite or virus in culture", "settings": "Severe acute respiratory syndrome coronavirus 2, Vero"}, "[8]": {"system": "SARS-CoV-2 Gamma, GR(P.1), hCoV-19/Korea/KDCA95637/2021", "assay": "microbe, parasite or virus in culture", "settings": "Severe acute respiratory syndrome coronavirus 2, Vero"}, "[9]": {"system": "SARS-CoV-2 Delta, G(B.1.617.2), hCoV-19/Korea/KDCA119861/2021", "assay": "microbe, parasite or virus in culture", "settings": "Severe acute respiratory syndrome coronavirus 2, Vero"}, "[10]": {"system": "SARS-CoV-2 Omicron, GRA(B.1.1.529), hCoV-19/Korea/KDCA447321/2021", "assay": "microbe, parasite or virus in culture", "settings": "Severe acute respiratory syndrome coronavirus 2, Vero"}},
  "data": [
    {"smiles": "CCOC(=O)C1(c2ccccc2)CCN(CCC(C#N)(c2ccccc2)c2ccccc2)CC1", "note": "[Diphenoxylate, diphenoxylate]", "values": [
      {"measurement": "SI, ratio of CC50 to EC50", "setting": "[1]", "result": "> 52.5"},
      {"measurement": "SI, ratio of CC50 to EC50", "setting": "[2]", "result": "> 20.4"},
      {"measurement": "potency relative to remdesivir (times more potent)", "setting": "[3]", "result": "up to 6.5 times"},
      {"measurement": "SI, ratio of CC50 to EC50", "setting": "[3]", "result": "> 68.0"},
      {"measurement": "SI, ratio of CC50 to EC50", "setting": "[4]", "result": "> 36.2"},
      {"measurement": "SI, ratio of CC50 to EC50", "setting": "[5]", "result": "> 31.3"},
      {"measurement": "EC50", "setting": "[6]", "result": "1.9 ± 0.2", "unit": "µM"},
      {"measurement": "EC50", "setting": "[7]", "result": "4.9 ± 0.3", "unit": "µM"},
      {"measurement": "EC50", "setting": "[8]", "result": "1.5 ± 0.1", "unit": "µM"},
      {"measurement": "EC50", "setting": "[9]", "result": "2.8 ± 0.6", "unit": "µM"},
      {"measurement": "EC50", "setting": "[10]", "result": "3.2 ± 0.6", "unit": "µM"}
    ]},
    {"smiles": "CCC(CC)COC(=O)[C@H](C)N[P@](=O)(OC[C@H]1O[C@@](C#N)(c2ccc3c(N)ncnn23)[C@H](O)[C@@H]1O)Oc1ccccc1", "note": "[RDV, remdesivir]", "values": [
      {"measurement": "SI, ratio of CC50 to EC50", "setting": "[2]", "result": "> 8.2"},
      {"measurement": "SI, ratio of CC50 to EC50", "setting": "[3]", "result": "> 10.3"},
      {"measurement": "SI, ratio of CC50 to EC50", "setting": "[4]", "result": "> 23.6"},
      {"measurement": "SI, ratio of CC50 to EC50", "setting": "[5]", "result": "> 60.7"},
      {"measurement": "EC50", "setting": "[6]", "result": "7 ± 1", "unit": "µM"},
      {"measurement": "EC50", "setting": "[7]", "result": "12.2 ± 0.4", "unit": "µM"},
      {"measurement": "EC50", "setting": "[8]", "result": "9.7 ± 0.7", "unit": "µM"},
      {"measurement": "EC50", "setting": "[9]", "result": 4.2, "unit": "µM"},
      {"measurement": "EC50", "setting": "[10]", "result": "1.6 ± 0.5", "unit": "µM"}
    ]}
  ]
}
